Where a SMILES comes first, the peptide text is derived from it. [ ]: non-standard residue; d: D form.

Assay [1] concerns the target T1, recombinant human ETB R (Homo sapiens, UniProt P24530).
T1 construct: expressed in transfected cells; host or cells: CHO-K1 cells (membranes)
T1 sequence (P24530 27-442): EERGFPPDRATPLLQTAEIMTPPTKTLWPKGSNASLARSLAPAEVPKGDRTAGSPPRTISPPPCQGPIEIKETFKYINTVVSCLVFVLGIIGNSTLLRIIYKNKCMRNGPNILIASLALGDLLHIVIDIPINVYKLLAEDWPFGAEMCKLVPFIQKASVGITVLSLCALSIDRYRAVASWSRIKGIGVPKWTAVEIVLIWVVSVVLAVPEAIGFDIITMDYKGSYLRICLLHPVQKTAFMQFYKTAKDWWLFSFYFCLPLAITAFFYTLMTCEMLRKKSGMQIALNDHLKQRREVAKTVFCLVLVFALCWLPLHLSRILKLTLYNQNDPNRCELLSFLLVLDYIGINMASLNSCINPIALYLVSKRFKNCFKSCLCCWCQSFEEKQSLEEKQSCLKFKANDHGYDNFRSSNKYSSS
Nature of the assay: [125I]-ET-1 radioligand binding, CHO-K1 cells expressing recombinant human ETB R (HERBA-B). As to conditions: [125I]-ET-1 (40 pM), 2 hours at 37° C.

Assay [2] addresses T2, recombinant human ETA R (Homo sapiens, UniProt P25101).
T2 construct: expressed in transfected cells; host or cells: Ltk- cells (membranes)
T2 sequence (P25101 21-427): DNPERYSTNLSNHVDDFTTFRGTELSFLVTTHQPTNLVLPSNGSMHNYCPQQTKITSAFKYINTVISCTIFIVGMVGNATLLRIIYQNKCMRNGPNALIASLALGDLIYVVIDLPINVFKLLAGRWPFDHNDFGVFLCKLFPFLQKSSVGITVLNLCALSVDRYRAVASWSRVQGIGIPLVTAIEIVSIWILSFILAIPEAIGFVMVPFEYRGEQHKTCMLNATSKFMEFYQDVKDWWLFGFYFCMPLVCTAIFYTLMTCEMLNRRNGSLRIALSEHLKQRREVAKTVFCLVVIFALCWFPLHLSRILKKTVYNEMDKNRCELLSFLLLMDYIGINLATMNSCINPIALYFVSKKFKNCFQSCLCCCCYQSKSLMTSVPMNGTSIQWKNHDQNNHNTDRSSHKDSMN
Nature of the assay: [125I]-ET-1 radioligand binding, Ltk- cells expressing recombinant human ETA R (HERBA-A). As to conditions: [125I]-ET-1 (40 pM), 2 hours at 37° C. The procedure:
(§1) The compounds of Formula I are valuable antagonists of endothelin.
(§2) The following cultured cells were used in binding experiments: rabbit renal artery vascular smooth muscle cells (ERBA-A), Ltk-cells expressing recombinant human ETA R (HERBA-A), and CHO-K1 cells expressing recombinant human ETB R (HERBA-B).
(§3) Membranes were prepared from cultured cells by lysing cells in cold lysis buffer (5 mM HEPES, 2 mM EDTA, pH 7.4) and homogenizing with a Dounce "A" homogenizer. The homogenate was centrifuged at 30,000×g for 20 minutes at 4° C. Membrane pellets were suspended in cold buffer containing 20 mM Tris, 2 mM EDTA, 200 μM Pefabloc, 10 μM phosphoramidon, 10 μM leupeptin, 1 μM pepstatin at pH 7.4 and frozen at -80° C. until use. Membranes were thawed and homogenized with a Brinkmann Polytron then diluted in tissue buffer containing 20 mM Tris, 2 mM EDTA, 200 μM Pefabloc and 100 μM bacitracin (pH 7.4). Radioligand and competing ligands were prepared in binding buffer containing 20 mMTris, 2 mM EDTA, and 0.1% BSA.
(§4) Competing binding assays were initiatedby combining membranes, [125I]-ET-1 (40 pM) and the competing ligand in a final volume of 250 μL and incubating for 2 hours at 37° C. The assay was terminated by filtration over Whatman GF/B filters which were presoaked with 50 mM Tris, pH 7.4 containing 0.2% BSA and 100 μM bacitracin. Nonspecific binding was defined as binding in the presence of 100 nMET-1.

In assay [3] the target is T3, rabbit renal artery vascular smooth muscle cells (ETA) (Oryctolagus cuniculus, UniProt A5A8K3).
T3 construct: endogenous in cells; host or cells: cultured rabbit renal artery vascular smooth muscle cells (membranes)
T3 sequence (A5A8K3 21-427): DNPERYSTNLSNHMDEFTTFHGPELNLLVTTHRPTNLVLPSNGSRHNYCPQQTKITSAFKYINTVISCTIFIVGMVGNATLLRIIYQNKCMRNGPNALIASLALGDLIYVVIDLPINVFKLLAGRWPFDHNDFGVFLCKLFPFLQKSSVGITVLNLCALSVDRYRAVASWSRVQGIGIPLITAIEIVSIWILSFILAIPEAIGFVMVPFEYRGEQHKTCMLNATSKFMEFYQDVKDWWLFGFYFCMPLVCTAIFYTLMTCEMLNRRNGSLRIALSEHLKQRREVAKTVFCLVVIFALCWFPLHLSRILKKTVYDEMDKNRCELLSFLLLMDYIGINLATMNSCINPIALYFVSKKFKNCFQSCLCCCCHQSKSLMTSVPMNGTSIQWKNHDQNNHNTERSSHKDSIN
In words: [125I]-ET-1 radioligand binding, rabbit renal artery vascular smooth muscle cells (ERBA-A). The note with it: [125I]-ET-1 (40 pM), 2 hours at 37° C. The procedure: as §1, §2, §3, §4

Assay [4] deals with ET receptor. As to conditions: allergic sheep; cited from earlier work.
Assay [5] relates to ETA. The note with it: in vivo; cited from earlier work.
The subject of assay [6] is ETA. As to conditions: mouse model of endotoxic shock; cited from earlier work.
Assay [7] concerns rat cerebellum (ETB). Nature of the assay: inhibition of ET-1 stimulated arachidonic acid release (AAR-B). The class given is cell-based. The note with it: ET-1 (0.3 nM) stimulated [3H]arachidonic acid release, 30 minutes.
Source text: as §1

Assay [8] has as its system ETB. The note with it: isolated, endothelium-intact porcine pulmonary arteries; cited from earlier work.
Assay [9] relates to ETA /ETB receptor. As to conditions: in vivo; cited from earlier work.
Assay [10] deals with endothelin receptor. The note with it: rats; cited from earlier work.
The subject of assay [11] is endothelin receptor. The note with it: rats; cited from earlier work. The source holds these as a separate data set.

One may read the IC50 as the concentration at which inhibition is half-maximal. For the molecule `COc1cccc(CC(NC(=O)C(c2ccccc2)c2ccccc2)C(=O)O)c1OCCCc1ccccc1` (racemic) [Example 7, (R,S)-Diphenylacetylamino-3-[3-methoxy-2-(3-phenyl-propoxy)phenyl]propionicacid], the figures for the IC50 in assay [1] and in assay [2] were 9.4 µM and 9.3 µM, respectively.

Consider `COc1cccc(CC(NC(=O)N(c2ccccc2)c2ccccc2)C(=O)O)c1OCc1ccccc1` (racemic) [Example 5, (R,S)-3-(2Benzyloxy-3-methoxyphenyl)-2-(3,3-diphenyl-ureido) propionic acid], for which the half-inhibitory concentration (IC50) came to 6.8 µM in assay [1] and 13 µM in [3].

On to `COc1cccc(CC(NC(=O)C(c2ccccc2)C2CCCC2)C(=O)O)c1OCc1ccccc1` (racemic) [Example 10, (R,S; R,S)-3-(2-Benzyloxy-3-methoxyphenyl)-2-(2-cyclopentyl-2-phenyl-acetylamino)propionic acid], for which the IC50 in [1] came to 2.2 µM; in assay [3], 23 µM.

Take `O=C(NC(C(=O)O)C(c1ccc2c(c1)OCO2)c1ccc2c(c1)OCO2)C(c1ccccc1)c1ccccc1` (centres unmarked) [Example 21, 3,3 -Bis-benzo[1,3]dioxol-5-yl-2-diphenylacetylamino-propionic acid]: the half-inhibitory concentration (IC50) stood at 2.5 µM in assay [1] and 1.3 µM in assay [2].

Take `CC(C)C[C@@H]1NC(=O)[C@@H](C(C)C)NC(=O)[C@@H]2CCCN2C(=O)[C@@H](CC(=O)O)NC(=O)[C@@H](Cc2c[nH]c3ccccc23)NC1=O` [BQ-123] (cyclo(L[dW][dD]P[dV])): in [4], the “ET-1 induced bronchoconstriction and tracheal smooth muscle contraction” value is reported as “block”. For the same molecule, in assay [5], the “early cerebral vasospasm following subarachnoid hemorrhage” value is “prevent early cerebral vasospasm”. Moreover, the survival rate result in [6] was “significantly increased”.

In the case of `O=C(NC(C(=O)O)C(c1ccc2c(c1)OCO2)c1ccc2c(c1)OCO2)c1ccc2c(c1)OCO2` (racemic) [Example 38, (R,S)-2-[(Benzo[1,3]dioxole-5-carbonyl)-amino]-3,3-bis-benzo [1,3]dioxol-5-yl-propionic acid], the IC50 in [1] turned out to be 13 µM; in [2], 1.3 µM.

Consider `COc1cccc(CC(NC(=O)C(c2ccccc2)c2ccccc2)C(=O)O)c1OCCc1ccccc1` (racemic) [Example 4, (R,S)-2-Diphenylacetylamino-3-[3-methoxy-2-(2-phenyl-ethoxy)phenyl]propionic acid], for which the IC50 in [1] was found to be 1 µM; in assay [2], 3.4 µM; in assay [7], 6.1 µM; in assay [3], 16 µM.

As to `COc1ccc(C(c2ccc3c(c2)OCO3)C(NC(=O)C(c2ccccc2)c2ccccc2)C(=O)O)cc1OCc1ccccc1` (racemic) [Example 23, (R,S: R,S)-3-Benzo[1,3]dioxol-5-yl-3-(3-benzyloxy-4-methoxyphenyl)-2-diphenyl-acetylaminopropionic acid], the values for the half-inhibitory concentration (IC50) in assay [1] and in assay [2] were 12 µM and 27 µM, respectively.

In the case of ET[1,3,11,15-Ala], the vasorelaxation result in assay [8] is “caused vasorelaxation”.

On to `COc1cccc(CC(NC(=O)C(c2ccccc2)c2ccccc2)C(=O)O)c1OCc1ccccc1` (racemic) [Example 3, (R,S)-N-(Diphenylacetyl)-3-methoxy-2-(phenylmethoxy)-phenylalanine], for which the IC50 in [1] is 2 µM; in assay [2], 3.4 µM; in [7], 10 µM.

For `COc1cccc(SC(c2cccc(OC)c2)C(NC(=O)C(c2ccccc2)c2ccccc2)C(=O)O)c1` (racemic) [Example 35, (R,S; R,S)-2-Diphenylacetylamino-3-(3-methoxyphenyl)-3-(3-methoxyphenyl-sulfanyl)propionic acid], the IC50 in assay [1] is 3 µM; in [2], 1.8 µM.

As for `COc1cccc(CC(NC(=O)C(Cc2cccc3ccccc23)Cc2cccc3ccccc23)C(=O)O)c1OCc1ccccc1` (racemic) [Example 9, (R,S)-3-(2-Benzyloxy-3-methoxyphenyl)-2-(3-naphthalen-1-yl-2-naphthalen-1-ylmethylpropionylamino)propionic acid], the IC50 in assay [1] was 2.2 µM; in assay [3] it was > 25 µM.

Consider `CCCOc1ccc2c(c1)[C@@H](c1ccc(OC)cc1OCC(=O)O)[C@H](C(=O)O)[C@H]2c1ccc2c(c1)OCO2` [SB 209670], for which, in assay [9], the “neointimal formation after angioplasty” value is listed as “reduced neointimal formation”.

With `COc1cccc(CC(NCC(c2ccccc2)c2ccccc2)C(=O)O)c1OCc1ccccc1` (racemic) [Example 16, (R,S)-3-(2-Benzyloxy-3-methoxyphenyl)-2-(2,2-diphenyl-ethylamino)propionic acid], the IC50 in [1] worked out at 9.7 µM; in [3] it was 7.1 µM.

With `COc1cccc(Oc2c(NS(=O)(=O)c3ccc(C(C)(C)C)cc3)ncnc2OCCO)c1` [RO 46-2005], the “efficacy in model of subarachnoid hemorrhage” value in [10] was “effective”. Besides, the “efficacy in model of acute renal ischemia” value in assay [11] is given as “effective”.

Consider `O=C(O)C(Cc1ccccc1OCc1ccccc1)NC(=O)C(c1ccccc1)c1ccccc1` (racemic) [Example 14, (R,S)-3-(2-Benzyloxyphenyl)-2-diphenylacetylamino-propionic acid], for which the IC50 was 23 µM in assay [1] and > 25 µM in assay [3].

On to `CC(C)c1ccc(S(=O)(=O)NC(C(=O)O)C(c2ccc3c(c2)OCO3)c2ccc3c(c2)OCO3)cc1` (racemic) [Example 40, (R,S)-3,3-Bis-benzo[1,3]dioxol-5-yl-2-(4-isopropyl-benzenesulfonylamino)-propionic acid], for which the IC50 in [1] worked out at 16 µM; in [2], 4 µM.

As for `COc1cccc(CC(NC(=O)C(c2ccccc2)c2ccccc2)C(=O)O)c1Oc1ccc([N+](=O)[O-])cc1` (racemic) [Example 8, (R,S)-2-Diphenylacetylamino-3-[3-method-2-(4-nitro-phenol)phenyl]propionicacid], the IC50 in [2] is > 25 µM; in [3], 17 µM.

The values are drawn from patent US5658943A, “Phenylalanine derivatives as endothelin antagonists” (Warner-Lambert Company, priority 1995, dated 1997).
